“Also recorded” adds a separate entry of the source.

A short description of the series: Pharmacokinetics of BI 1356 in patients with type 2 diabetes, multiple oral doses once daily for 12 days. The note with it: therapeutic oral dose levels; listed as BI 1356.

Regarding `CC#CCn1c(N2CCC[C@@H](N)C2)nc2c1c(=O)n(Cc1nc(C)c3ccccc3n1)c(=O)n2C` [linagliptin], the route of excretion entry was “mainly excreted via the liver; also recorded: primarily excreted unchanged via the bile”.

(Values after patent publication US20140343014A1, “COMBINATION OF A CERTAIN DPP-4 INHIBITOR AND VOGLIBOSE” (BOEHRINGER INGELHEIM INTERNATIONAL GMBH, priority 2013, published 2014).)
